Results taken from patent publication US20090124643A1, “Use of a Cannabinoid CB1 Receptor Antagonist for Preparation of Drugs Useful for the Prevention and Treatment of Benign Prostatic Hypertrophy” (SANOFI-AVENTIS, priority 2006, published 2009).

Columns and labels:
testosterone-induced BPH = experiment: Treatment of testosterone-induced BPH in rats; type: in vivo, rat; conditions: for Decrease in volume of total prostate / Decrease in volume of ventral prostate / Decrease in weight of total prostate / Decrease in weight of ventral prostate: % of the increase preinduced with testosterone
Experimental: Treatment of Testosterone-Induced BPH in Rats
Male rats are implanted with catheters and receive 18.75 mg per rat of testosterone, subcutaneously at D-4.
From day D0 to day D21, they receive rimonabant daily, at the dose of either 10 mg/kg per os, or of 30 mg/kg per os.
At day D22, the animals are sacrificed and their prostate is analyzed.
This decrease is evaluated as % of the increase preinduced with testosterone.

[1] = test system: BPH in spontaneously hypertensive rats; experiment: Treatment of BPH in spontaneously hypertensive rats (SHR), qualitative histological study of the prostate lobes; type: in vivo, rat; conditions: SHR rats treated for 28 days, from 10 mg/kg onward
Experimental: Treatment of BPH in Spontaneously Hypertensive Rats
The spontaneously hypertensive rat (SHR) model as described by Golomb et al., J. Androl. (2000), 21(1), 58-64 and Matituahou et al., J. Androl. (2003) 24(2), 263-9 is used.
A qualitative histological study of the prostate lobes is carried out on untreated SHR rats and on rats treated for 28 days with 10 mg/kg or 30 mg/kg of rimonabant.

[2] = rimonabant 10 mg/kg/d per os, D0 to D21
[3] = rimonabant 30 mg/kg/d per os, D0 to D21

SMILES	Weight and volume of the prostate (testosterone-induced BPH; chronic treatment with rimonabant, 10 or 30 mg/kg per os daily, D0 to D21)	Decrease in volume of total prostate (testosterone-induced BPH; [2])	Decrease in volume of ventral prostate (testosterone-induced BPH; [2])	Decrease in weight of total prostate (testosterone-induced BPH; [2])	Decrease in weight of ventral prostate (testosterone-induced BPH; [2])	Decrease in volume of total prostate (testosterone-induced BPH; [3])	Decrease in volume of ventral prostate (testosterone-induced BPH; [3])	Decrease in weight of total prostate (testosterone-induced BPH; [3])	Decrease in weight of ventral prostate (testosterone-induced BPH; [3])	Histology of the ventral prostate lobes [1]	Increase in weight and volume of the total prostate and of the ventral prostate (testosterone-induced BPH; pretreatment with testosterone 18.75 mg per rat, subcutaneously at D-4)
Cc1c(C(=O)NN2CCCCC2)nn(-c2ccc(Cl)cc2Cl)c1-c1ccc(Cl)cc1 [Rimonabant, N-piperidino-5-(4-chlorophenyl)-1-(2,4-dichlorophenyl)-4-methylpyrazole-3-carboxamide]	significant decrease	64%	88%	54%	87%	87%	100%	73%	95%	the tissues are normal and non-hypertrophied	
C[C@]12CC[C@H]3[C@@H](CCC4=CC(=O)CC[C@@]43C)[C@@H]1CC[C@@H]2O [testosterone]											approximately 35%
